Measured values taken from US9126978B2, “1,4-benzodiazepine-2,5-diones and related compounds with therapeutic properties” (The Regents of the University of Michigan, priority 2009, dated 2015).

What was measured:
[1] = target: ROCK-II (h, amino acids 11-552) (Homo sapiens (Human), UniProt O75116); test: ROCK-II (h) inhibition assay; assay type: biochemical; conditions: radiometric [γ-32P-ATP] filter assay, 40 minutes at room temperature; read-out: ROCK2 IC50
Protocol: ROCK-II (h) Inhibition Assay:
In a final reaction volume of 25 μL, ROCK-II (h, amino acids 11-552) (5-10 mU) was incubated with 50 mM Tris pH 7.5, 0.1 mM EGTA, 30 μM […], 10 mM magnesium acetate and [γ-^32P-ATP] (specific activity approx. 500 cpm/pmol, concentration as required). The reaction was initiated by the addition of the MgATP mix. After incubation for 40 minutes at room temperature, the reaction was stopped by the addition of 5 μL of a 3% phosphoric acid solution. 10 μL of the reaction was then spotted onto a P30 filter-mat and washed three times for 5 minutes in 75 mM phosphoric acid and once in methanol prior to drying and scintillation counting.

[2] = target: ROCK-I (h, amino acids 17-535) (Homo sapiens (Human), UniProt Q13464); test: ROCK-I (h) inhibition assay; assay type: biochemical; conditions: radiometric [γ-32P-ATP] filter assay, 40 minutes at room temperature; read-out: ROCK1 IC50
ROCK-I (h, amino acids 17-535), sequence (Q13464 17-535): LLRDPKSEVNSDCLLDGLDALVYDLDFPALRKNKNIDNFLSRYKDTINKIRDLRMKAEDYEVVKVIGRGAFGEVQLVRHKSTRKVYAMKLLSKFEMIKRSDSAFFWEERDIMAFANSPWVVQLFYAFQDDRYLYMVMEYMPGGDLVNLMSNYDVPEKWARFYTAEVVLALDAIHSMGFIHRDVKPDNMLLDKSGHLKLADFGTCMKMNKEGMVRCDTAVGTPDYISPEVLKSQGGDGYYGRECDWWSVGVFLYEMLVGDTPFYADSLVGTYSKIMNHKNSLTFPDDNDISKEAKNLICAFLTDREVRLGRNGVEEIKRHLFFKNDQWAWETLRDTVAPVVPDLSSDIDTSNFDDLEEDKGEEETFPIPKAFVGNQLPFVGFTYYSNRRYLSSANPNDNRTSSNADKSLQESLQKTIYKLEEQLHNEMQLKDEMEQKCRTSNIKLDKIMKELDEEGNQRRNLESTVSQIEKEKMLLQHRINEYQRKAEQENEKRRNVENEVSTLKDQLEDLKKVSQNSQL
Protocol: ROCK-I (h) Inhibition Assay:
In a final reaction volume of 25 μL, ROCK-I (h, amino acids 17-535) (5-10 mU) was incubated with 8 mM MOPS pH 7.0, 0.2 mM EDTA, 30 μM […], 10 mM magnesium acetate and [γ-^32P-ATP] (specific activity approx. 500 cpm/pmol, concentration as required). The reaction was initiated by the addition of the MgATP mix. After incubation for 40 minutes at room temperature, the reaction was stopped by the addition of 5 μL of a 3% phosphoric acid solution. 10 μL of the reaction was then spotted onto a P30 filtermat and washed three times for 5 minutes in 75 mM phosphoric acid and once in methanol prior to drying and scintillation counting.

ROCK-II (h, amino acids 11-552), sequence (O75116 11-552): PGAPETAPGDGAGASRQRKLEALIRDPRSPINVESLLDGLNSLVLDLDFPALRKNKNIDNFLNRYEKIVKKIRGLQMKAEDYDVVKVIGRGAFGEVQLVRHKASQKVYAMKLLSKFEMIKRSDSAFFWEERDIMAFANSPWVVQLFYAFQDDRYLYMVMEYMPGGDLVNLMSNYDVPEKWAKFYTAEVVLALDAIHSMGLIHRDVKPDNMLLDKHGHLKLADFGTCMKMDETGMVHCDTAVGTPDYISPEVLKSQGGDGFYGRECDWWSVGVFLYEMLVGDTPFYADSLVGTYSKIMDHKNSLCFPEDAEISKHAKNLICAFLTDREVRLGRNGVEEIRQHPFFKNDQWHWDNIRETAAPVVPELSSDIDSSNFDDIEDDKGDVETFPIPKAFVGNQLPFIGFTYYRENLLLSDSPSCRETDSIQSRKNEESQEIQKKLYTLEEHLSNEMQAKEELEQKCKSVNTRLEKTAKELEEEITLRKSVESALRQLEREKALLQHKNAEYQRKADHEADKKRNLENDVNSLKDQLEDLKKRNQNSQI

Compound | IC50 [1] | IC50 [2]
CN1C(=O)[C@@H](Cc2ccc(-c3ccncc3)cc2)NC(=O)c2cc(Cl)ccc21 [Compound 1, (R)-7-chloro-1-methyl-3-(4-(pyridin-4-yl)benzyl)-3,4-dihydro-1H-benzo[e][1,4]diazepine-2,5-dione] | 1.1 µM | > 30 µM
C[C@@]1(Cc2ccc(-c3ccncc3)cc2)NC(=O)c2cc(Cl)ccc2NC1=O [Compound 2, (S)-7-chloro-3-methyl-3-(4-(pyridin-4-yl)benzyl)-3,4-dihydro-1H-benzo[e][1,4]diazepine-2,5-dione] | – | > 10 µM
CN1C(=O)[C@@H](Cc2ccc(-c3ccncc3)cc2)NC(=O)c2c(Cl)cccc21 [Compound 3, (R)-6-chloro-1-methyl-3-(4-(pyridin-4-yl)benzyl)-3,4-dihydro-1H-benzo[e][1,4]diazepine-2,5-dione] | 0.86 µM | > 30 µM
CN1C(=O)[C@@H](Cc2ccc(-c3ccncc3)cc2)NC(=O)c2ccc(Cl)cc21 [Compound 4, (R)-8-chloro-1-methyl-3-(4-(pyridin-4-yl)benzyl)-3,4-dihydro-1H-benzo[e][1,4]diazepine-2,5-dione] | 0.8 µM | > 10 µM
CN1C(=O)[C@@H](Cc2ccc(-c3ccncc3)cc2)NC(=O)c2cccc(Cl)c21 [Compound 5, (R)-9-chloro-1-methyl-3-(4-(pyridin-4-yl)benzyl)-3,4-dihydro-1H-benzo[e][1,4]diazepine-2,5-dione] | – | > 10 µM
